Test results as given in patent US20060073220A1, “Cinnamon extract enriched for polyphenols and methods of preparing same” (priority 2004, published 2006).
Converted amounts (≈) assume the structure as drawn.

How the values were obtained:
[1] = tested on: HSV-1; assay: antiviral assay, HSV-1; type: cell-based, Herpes simplex virus 1; conditions: positive control, HHF cells
[2] = tested on: HSV-2; assay: antiviral assay, HSV-2; type: cell-based, Herpes simplex virus 2; conditions: positive control, HHF cells
[3] = tested on: Influenza B; assay: antiviral assay, Influenza B; type: cell-based; conditions: positive control, MDCK cells
[4] = tested on: Adenovirus Type 1; assay: antiviral assay, Adenovirus Type 1; type: cell-based
[5] = tested on: Punta Toro A; assay: antiviral assay, Punta Toro A; type: cell-based, Punta Toro A virus
[6] = tested on: Rhinovirus Type 2; assay: antiviral assay, Rhinovirus Type 2; type: cell-based
[7] = tested on: West Nile Virus; assay: antiviral assay, West Nile Virus; type: cell-based; conditions: positive control, Vero cells
[8] = tested on: RSV (respiratory syncytial virus); assay: RSV (respiratory syncytial virus) assay; type: cell-based
[9] = tested on: PIV (parainfluenza virus); assay: PIV (parainfluenza virus) assay; type: cell-based
[10] = tested on: Influenza A; assay: Influenza A assay (strain not stated for the control); type: cell-based, influenza A virus

Compound	ED50 HSV1 assay [1] [µg/mL]	ED50 HSV2 assay [2] [µg/mL]	ED50 Influenza B assay [3] [µg/mL]	ED50 Adenovirus type 1 assay [4] [µg/mL]	ED50 Punta Toro A assay [5] [µg/mL]	ED50 Rhinovirus assay [6] [µg/mL]	ED50 West Nile viral assay [7] [µg/mL]	ED50 RSV assay [8] [µg/mL]	ED50 PVI (parainfluenza virus) assay [9] [µg/mL]	ED50 Influenza A assay [10] [µg/mL]
Nc1nc2c(ncn2COCCO)c(=O)[nH]1 [acyclovir]	1 to 2	1 to 2	–	–	–	–	–	–	–	–
NC(=O)c1ncn([C@@H]2O[C@H](CO)[C@@H](O)[C@H]2O)n1 [ribivarin]	–	–	2 to 3	10 (≈ 40.9 µM)	20 (≈ 81.9 µM)	< 1	20 (≈ 81.9 µM)	20 (≈ 81.9 µM)	20 (≈ 81.9 µM)	2 to 3
